Measurements: patent publication US8530512B2, “Broad spectrum gram-positive antimicrobials and anthelmintics with efficacy against drug-resistant strains and Mycobacterium species” (priority 2004, dated 2013)
In brackets after ≈: the same amount, converted by molar mass.

Experiments:
[1] = test system: Staphylococcus aureus ATCC 29213; experiment: microbe, parasite or virus in culture; assay type: cell-based; conditions: for MIC: Staphylococcus aureus, ATCC29213, per-compound listing, Example 6, read-out: MIC S. aureus
[2] = test system: Staphylococcus aureus MRSA MC-1; experiment: microbe, parasite or virus in culture; assay type: cell-based; conditions: for MIC: Staphylococcus aureus, MRSA, read-out: MIC MRSA
[3] = test system: Enterococcus faecium VRE 1; experiment: organism not typed; assay type: cell-based; conditions: for MIC E. faecium VRE 1, G+: Table 3; for MIC: read-out: MIC VRE
[4] = test system: Streptococcus pyogenes; experiment: microbe, parasite or virus in culture; assay type: cell-based; conditions: for MIC: Streptococcus pyogenes, per-compound listing, Example 6, read-out: MIC S. pyogenes; for MIC S. pyogenes, G+: Table 3
[5] = test system: Bacillus cereus; experiment: microbe, parasite or virus in culture; assay type: cell-based; conditions: for MIC: Bacillus cereus, per-compound listing, Example 6, read-out: MIC B. cereus; for MIC B. cereus, G+ (anthrax surrogate): Table 3
[6] = test system: M. smegmatis; experiment: MIC assay; assay type: cell-based; conditions: for MIC: Mycolicibacterium smegmatis, per-compound listing, Example 6, read-out: MIC M. smegmatis
[7] = test system: C. elegans; experiment: motility assay; assay type: in vivo; parameters: key to Movement score, 1/1600 / Movement score, 1/800 / Movement score, 1/400 / Movement score, 1/200 / Movement score, 1/100: normal (−); slow (+); very slow (++); not motile/paralyzed (+++); conditions: for Movement score, 1/100: dilution 1/100 of stock (10.24 μg/μL; SK-03-92 1.024 μg/μL); for Movement score, 1/100 / Movement score, 1/200 / Movement score, 1/400 / Movement score, 1/800 / Movement score, 1/1600: Ive 1 ng/μL in all wells; for Movement score, 1/200: dilution 1/200 of stock (10.24 μg/μL; SK-03-92 1.024 μg/μL); for Movement score, 1/400: dilution 1/400 of stock (10.24 μg/μL; SK-03-92 1.024 μg/μL); for Movement score, 1/800: dilution 1/800 of stock (10.24 μg/μL; SK-03-92 1.024 μg/μL); for Movement score, 1/1600: dilution 1/1600 of stock (10.24 μg/μL; SK-03-92 1.024 μg/μL), overnight 20° C.; for effect on worms at the lowest concentrations tested: at least triplicate
[8] = test system: C. elegans L1 larvae; experiment: developmental assay; assay type: in vivo; parameters: key to Developmental score, 1/1600 / Developmental score, 1/800 / Developmental score, 1/400 / Developmental score, 1/200 / Developmental score, 1/100: dead (+++); distressed (++); slightly delayed (+); the same as M9-only untreated wells (−); conditions: for Developmental score, 1/100: dilution 1/100; for Developmental score, 1/100 / Developmental score, 1/200 / Developmental score, 1/400 / Developmental score, 1/800 / Developmental score, 1/1600: after four days, Ive 1 ng/μL in each well; for Developmental score, 1/200: dilution 1/200; for Developmental score, 1/400: dilution 1/400; for Developmental score, 1/800: dilution 1/800; for Developmental score, 1/1600: dilution 1/1600
[9] = test system: Mycobacterium avium; experiment: MIC assay; assay type: cell-based; conditions: Table 6
[10] = test system: Mycobacterium chelonae; experiment: MIC assay; assay type: cell-based; conditions: Table 6
[11] = test system: Mycobacterium fortuitum; experiment: MIC assay; assay type: cell-based; conditions: Table 6
[12] = test system: Mycobacterium intracellulare; experiment: MIC assay; assay type: cell-based; conditions: Table 6

SMILES	MIC [1] [µg/mL]	MIC [2] [µg/mL]	MIC E. faecium VRE 1, G+ [3] [µg/mL]	MIC [3] [µg/mL]	MIC [4] [µg/mL]	MIC S. pyogenes, G+ [4] [µg/mL]	MIC [5] [µg/mL]	MIC B. cereus, G+ (anthrax surrogate) [5] [µg/mL]	MIC [6] [µg/mL]	Movement score, 1/100 [7]	Movement score, 1/200 [7]	Movement score, 1/400 [7]	Movement score, 1/800 [7]	Movement score, 1/1600 [7]	Developmental score, 1/100 [8]	Developmental score, 1/200 [8]	Developmental score, 1/400 [8]	Developmental score, 1/800 [8]	Developmental score, 1/1600 [8]	effect on worms at the lowest concentrations tested [7]	other results
COc1cc(O)cc(/C=C/Sc2ccccc2)c1 [CL-4, Phenyl-E-(3-hydroxy-5methoxy)-styryl thioether]	16 (≈ 61.9 µM)	32 (≈ 124 µM)	32 (≈ 124 µM)	32 (≈ 124 µM)	8 (≈ 31 µM)	8 (≈ 31 µM)	16 (≈ 61.9 µM)	16 (≈ 61.9 µM)	128 (≈ 495 µM)	+++	+++	++	+	−	+++	+++	+++	−	−		
COc1cc(O)cc(/C=C/c2ccsc2)c1 [CL-5, (E)-3-[2-(3-Hydroxy-5-methoxy)-vinyl]thiophene]	16 (≈ 68.9 µM)	32 (≈ 138 µM)	32 (≈ 138 µM)	32 (≈ 138 µM)	4 (≈ 17.2 µM)	4 (≈ 17.2 µM)	32 (≈ 138 µM)	32 (≈ 138 µM)	128 (≈ 551 µM)	+++	+++	+++	+++	++	+++	+++	+++	+++	+	reduced motility, paralysis, or death	effect on worms at the lowest concentration tested (most active) ([7]; lowest concentration tested): severe distress; effect at the two highest dilutions [8]: death or delays in development
COc1cc(O)cc(/C=C/c2cccs2)c1 [CL-6, (E)-2-[2-(3-Hydroxy-5-methoxy)-vinyl]thiophene]	32 (≈ 138 µM)	32 (≈ 138 µM)	64 (≈ 276 µM)	64 (≈ 276 µM)	32 (≈ 138 µM)	32 (≈ 138 µM)	32 (≈ 138 µM)	32 (≈ 138 µM)	64 (≈ 276 µM)	+++	+++	+++	−	−							
COc1ccc(O/C=C/c2cc(O)cc(OC)c2)cc1 [Compound A6, 4-Methoxyphenyl-E-(3-hydroxy-5methoxy)-styryl ether]	32 (≈ 118 µM)	64 (≈ 235 µM)	64 (≈ 235 µM)	64 (≈ 235 µM)	32 (≈ 118 µM)	32 (≈ 118 µM)	64 (≈ 235 µM)	64 (≈ 235 µM)	128 (≈ 470 µM)	+++	+++	++	+	−	+++	+++	+	−	−		
COc1cc(O)cc(/C=C/Oc2cccc(OC)c2)c1 [Compound A8, 3-Methoxyphenyl-E-(3-hydroxy-5-methoxy)-styryl ether]	32 (≈ 118 µM)	64 (≈ 235 µM)	64 (≈ 235 µM)	64 (≈ 235 µM)	16 (≈ 58.8 µM)	16 (≈ 58.8 µM)	64 (≈ 235 µM)	64 (≈ 235 µM)	128 (≈ 470 µM)	+++	++	++	+	+	+++	+++	−	−	−		
COc1cc(O)cc(/C=C/Oc2cccc(C)c2)c1 [Compound A9, 3-Methylphenyl-E-(3-hydroxy-5-methoxy)-styryl ether]	16 (≈ 62.4 µM)	32 (≈ 125 µM)	32 (≈ 125 µM)	32 (≈ 125 µM)	32 (≈ 125 µM)	32 (≈ 125 µM)	32 (≈ 125 µM)	16 (≈ 62.4 µM)	64 (≈ 250 µM)	+++	+++	++	++	+	+++	+++	+++	−	−	reduced motility, paralysis, or death	
COc1cc(O)cc(/C=C/Oc2ccc(C)cc2)c1 [Compound A10, 4-Methylphenyl-E-(3-hydroxy-5-methoxy)-styryl ether]	16 (≈ 62.4 µM)	32 (≈ 125 µM)	32 (≈ 125 µM)	32 (≈ 125 µM)	32 (≈ 125 µM)	32 (≈ 125 µM)	64 (≈ 250 µM)	64 (≈ 250 µM)	> 128	+++	+++	+++	++	+	+++	+++	++	−	−	reduced motility, paralysis, or death	
N#Cc1cccc(/C=C/SC2=NCCS2)c1 [SK-04-72]																					MIC S. aureus ATCC 29213 ([1]; Table 6): >512 µg/mL; MIC S. aureus MC-1 ([2]; Table 6): >512 µg/mL; MIC M. smegmatis ([6]; Table 6): 64 µg/mL (≈ 260 µM); MIC M. avium [9]: 64 µg/mL (≈ 260 µM); MIC M. chelonae [10]: 64 µg/mL (≈ 260 µM); MIC M. fortuitum [11]: 64 µg/mL (≈ 260 µM); MIC M. intracellulare [12]: 64 µg/mL (≈ 260 µM)
